Data on one molecule can be found in patent US10085965B2, “Cannabinoid alcoholic drink” (priority 2016, dated 2018).

The nature of data set [1]: Dissolution of CBD in ethanol and consumable alcohol (precipitation / clarity). Type of data set: physicochemical. The procedure:
The Combining Cannabinoid Solution with Consumable Alcohol(s) step 156 involves adding the Solution from 154 to a plurality of consumable alcohols measured in 155 in order to create a CAD. In one example, 50 mg of isolated cannabinoid is measured 151. Approximately 5 mL of ethanol is measured 152. The cannabinoid is combined with the ethanol 153. A cannabinoid solution is created by ensuring the cannabinoid is fully dissolved in the ethanol 154. The resulting solution is then combined with one or more consumable alcohols 156. In this example, approximately 745 mL of vodka, to create a standard 750 mL bottle of cannabinoid infused vodka. In other embodiments, other volumes of CADs can be produced. In yet another embodiment, the volume fraction of cannabinoid/ethanol solution in total volume of CADs is equal to or less than 1%.
One particular cannabinoid that can be used is CBD. […] Thus, the CBD and ethanol combine to remain as a fully dissolved, clear solution. […]
The Combining CBD/Ethanol Solution with consumable Alcohol(s) step 256 involves adding the Solution from 254 to the plurality of consumable alcohols measured in 255 in order to create a CAD. In one example, 50 mg of isolated CBD is measured 251. Approximately 5 mL of ethanol is measured 252. […]

Data set [2] relates to binge alcohol-induced neurodegeneration. Conditions: transdermal delivery, rodent model; Liputa et al. 2013; cited from earlier work.
The nature of data set [3]: Effects reported by people when the CBD alcoholic drink is consumed. To be noted: CBD consumed together with alcohol in the drink; reports of consumers. Type of data set: in vivo. An excerpt: When consumed, the positive effects of the CBD help to offset the deleterious effects of the alcohol.

SMILES strings stand for the structures.

Consider `C=C(C)[C@@H]1CCC(C)=C[C@H]1c1c(O)cc(CCCCC)cc1O` [CBD, cannabidiol], for which, in data set [1] (7.8 mg CBD in 1 mL ethanol), the “dissolution of CBD in ethanol” value is reported as “no problem with dissolution”. For the same molecule, the “precipitation of CBD from the solution” value in data set [1] (amounts/ratios described: 50 mg in approx. 5 mL ethanol, combined with approx. 745 mL vodka, room temperature) is listed as “will not precipitate out”. Moreover, the “effect on binge alcohol-induced neurodegeneration” value in data set [2] is reported as “attenuate binge alcohol-induced neurodegeneration”. Besides, in data set [3], the “effects reported when consumed” value is “euphoria, a sense of being upbeat and feeling little to no effect of the alcohol”.
